According to PubChem BioAssay (NCI):
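Dose response: 5 concentrations. Exposure: 48 h. Format: 96-well plates. Endpoint: linear interpolation; highest concentration if not reached. TGI: total growth inhibition.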

How the values were obtained:
Test in all cases: NCI anticancer screen, dose series, 48 h
HCT-15 colon = test system: HCT-15 colon
SNB-19 CNS = test system: SNB-19 CNS
SK-MEL-5 melanoma = test system: SK-MEL-5 melanoma
NCI-H226 lung = test system: NCI-H226 lung
OVCAR-3 ovarian = test system: OVCAR-3 ovarian
SK-MEL-28 melanoma = test system: SK-MEL-28 melanoma
MDA-N = test system: MDA-N
NCI-H23 lung = test system: NCI-H23 lung
RPMI-8226 leukemia = test system: RPMI-8226 leukemia
NCI-H460 lung = test system: NCI-H460 lung
TK-10 renal = test system: TK-10 renal
OVCAR-4 ovarian = test system: OVCAR-4 ovarian
LOX IMVI melanoma = test system: LOX IMVI melanoma
DU-145 prostate = test system: DU-145 prostate
SW-620 colon = test system: SW-620 colon
SNB-75 CNS = test system: SNB-75 CNS
UACC-257 melanoma = test system: UACC-257 melanoma
MCF7 breast = test system: MCF7 breast
MDA-MB-435 = test system: MDA-MB-435
RXF 393 renal = test system: RXF 393 renal
PC-3 prostate = test system: PC-3 prostate
HCC-2998 colon = test system: HCC-2998 colon
OVCAR-5 ovarian = test system: OVCAR-5 ovarian
CCRF-CEM leukemia = test system: CCRF-CEM leukemia
SR leukemia = test system: SR leukemia
MALME-3M melanoma = test system: MALME-3M melanoma
EKVX NSCLC = test system: EKVX NSCLC
KM12 colon = test system: KM12 colon
HS 578T breast = test system: HS 578T breast
A498 renal = test system: A498 renal
UO-31 renal = test system: UO-31 renal
HCT-116 colon = test system: HCT-116 colon
U251 CNS = test system: U251 CNS
IGROV1 ovarian = test system: IGROV1 ovarian
SK-OV-3 ovarian = test system: SK-OV-3 ovarian
K-562 leukemia = test system: K-562 leukemia
OVCAR-8 ovarian = test system: OVCAR-8 ovarian
BT-549 breast = test system: BT-549 breast
CAKI-1 renal = test system: CAKI-1 renal
A549 NSCLC = test system: A549 NSCLC
HT29 colon = test system: HT29 colon
NCI/ADR-RES ovarian = test system: NCI/ADR-RES ovarian
MOLT-4 leukemia = test system: MOLT-4 leukemia
COLO 205 colon = test system: COLO 205 colon
NCI-H522 lung = test system: NCI-H522 lung
UACC-62 melanoma = test system: UACC-62 melanoma
MDA-MB-231 breast = test system: MDA-MB-231 breast
ACHN renal = test system: ACHN renal
SF-295 CNS = test system: SF-295 CNS
SN12C renal = test system: SN12C renal
SK-MEL-2 melanoma = test system: SK-MEL-2 melanoma
HOP-62 NSCLC = test system: HOP-62 NSCLC
HOP-92 NSCLC = test system: HOP-92 NSCLC
SF-268 CNS = test system: SF-268 CNS
T-47D breast = test system: T-47D breast
786-0 renal = test system: 786-0 renal
M14 melanoma = test system: M14 melanoma
SF-539 CNS = test system: SF-539 CNS
HL-60(TB) leukemia = test system: HL-60(TB) leukemia

## Clc1ccc(CCNCCNC2(c3cc4ccccc4s3)CCCCC2)cc1Cl
HCT-15 colon
  TGI: 3.61 µM
SNB-19 CNS
  TGI: 3.83 µM
SK-MEL-5 melanoma
  TGI: 3.12 µM
NCI-H226 lung
  TGI: 3.64 µM
OVCAR-3 ovarian
  TGI: 2.91 µM
SK-MEL-28 melanoma
  TGI: 3.24 µM
MDA-N
  TGI: 3.33 µM
NCI-H23 lung
  TGI: 3.38 µM
RPMI-8226 leukemia
  TGI: 4.62 µM
NCI-H460 lung
  TGI: 3.16 µM
TK-10 renal
  TGI: 3.07 µM
OVCAR-4 ovarian
  TGI: 3.17 µM
LOX IMVI melanoma
  TGI: 3.36 µM
DU-145 prostate
  TGI: 3.88 µM
SW-620 colon
  TGI: 3.48 µM
SNB-75 CNS
  TGI: 3.72 µM
UACC-257 melanoma
  TGI: 3.29 µM
MCF7 breast
  TGI: 3.18 µM
MDA-MB-435
  TGI: 3.83 µM
RXF 393 renal
  TGI: 4 µM
PC-3 prostate
  TGI: 3.11 µM
HCC-2998 colon
  TGI: 2.82 µM
OVCAR-5 ovarian
  TGI: 3.64 µM
CCRF-CEM leukemia
  TGI: 5.39 µM
SR leukemia
  TGI: 4.19 µM
MALME-3M melanoma
  TGI: 3.44 µM
EKVX NSCLC
  TGI: 3.99 µM
KM12 colon
  TGI: 3.1 µM
HS 578T breast
  TGI: 4.52 µM
A498 renal
  TGI: 3.17 µM
UO-31 renal
  TGI: 3.46 µM
HCT-116 colon
  TGI: 3.26 µM
U251 CNS
  TGI: 2.99 µM
IGROV1 ovarian
  TGI: 3.24 µM
SK-OV-3 ovarian
  TGI: 2.81 µM
K-562 leukemia
  TGI: 4.52 µM
OVCAR-8 ovarian
  TGI: 3.54 µM
BT-549 breast
  TGI: 3.44 µM
CAKI-1 renal
  TGI: 3.42 µM
A549 NSCLC
  TGI: 3.81 µM
HT29 colon
  TGI: 3.59 µM
NCI/ADR-RES ovarian
  TGI: 3.47 µM
MOLT-4 leukemia
  TGI: 4.53 µM
COLO 205 colon
  TGI: 2.99 µM
NCI-H522 lung
  TGI: 3.37 µM
UACC-62 melanoma
  TGI: 3.11 µM
MDA-MB-231 breast
  TGI: 3.24 µM
ACHN renal
  TGI: 3.1 µM
SF-295 CNS
  TGI: 3.04 µM
SN12C renal
  TGI: 3.53 µM
SK-MEL-2 melanoma
  TGI: 3.2 µM
HOP-62 NSCLC
  TGI: 2.6 µM
HOP-92 NSCLC
  TGI: 3.15 µM
SF-268 CNS
  TGI: 3.37 µM
T-47D breast
  TGI: 4.07 µM
786-0 renal
  TGI: 3.65 µM
M14 melanoma
  TGI: 3.97 µM

## C[C@]12CC[C@@H]3c4cc(C=O)c(OCc5ccccc5)cc4CC[C@H]3[C@@H]1CCC2OCc1ccccc1 (stereo partly drawn)
HCT-15 colon
  TGI: > 100 µM
SK-MEL-5 melanoma
  TGI: > 100 µM
NCI-H226 lung
  TGI: > 100 µM
OVCAR-3 ovarian
  TGI: > 100 µM
SK-MEL-28 melanoma
  TGI: > 100 µM
MDA-N
  TGI: > 100 µM
NCI-H23 lung
  TGI: > 100 µM
RPMI-8226 leukemia
  TGI: > 100 µM
NCI-H460 lung
  TGI: > 100 µM
TK-10 renal
  TGI: > 100 µM
OVCAR-4 ovarian
  TGI: > 100 µM
LOX IMVI melanoma
  TGI: > 100 µM
DU-145 prostate
  TGI: > 100 µM
SW-620 colon
  TGI: > 100 µM
SNB-75 CNS
  TGI: > 100 µM
UACC-257 melanoma
  TGI: > 100 µM
MCF7 breast
  TGI: > 100 µM
MDA-MB-435
  TGI: > 100 µM
RXF 393 renal
  TGI: > 100 µM
PC-3 prostate
  TGI: > 100 µM
HCC-2998 colon
  TGI: > 100 µM
OVCAR-5 ovarian
  TGI: > 100 µM
CCRF-CEM leukemia
  TGI: > 100 µM
SR leukemia
  TGI: > 100 µM
SF-539 CNS
  TGI: > 100 µM
EKVX NSCLC
  TGI: > 100 µM
KM12 colon
  TGI: > 100 µM
HS 578T breast
  TGI: > 100 µM
HL-60(TB) leukemia
  TGI: > 100 µM
A498 renal
  TGI: > 100 µM
UO-31 renal
  TGI: > 100 µM
HCT-116 colon
  TGI: > 100 µM
U251 CNS
  TGI: > 100 µM
SK-OV-3 ovarian
  TGI: > 100 µM
K-562 leukemia
  TGI: > 100 µM
OVCAR-8 ovarian
  TGI: > 100 µM
BT-549 breast
  TGI: > 100 µM
CAKI-1 renal
  TGI: > 100 µM
A549 NSCLC
  TGI: > 100 µM
HT29 colon
  TGI: > 100 µM
NCI/ADR-RES ovarian
  TGI: > 100 µM
MOLT-4 leukemia
  TGI: > 100 µM
COLO 205 colon
  TGI: > 100 µM
NCI-H522 lung
  TGI: > 100 µM
UACC-62 melanoma
  TGI: > 100 µM
MDA-MB-231 breast
  TGI: > 100 µM
ACHN renal
  TGI: > 100 µM
SF-295 CNS
  TGI: > 100 µM
SN12C renal
  TGI: > 100 µM
SK-MEL-2 melanoma
  TGI: > 100 µM
HOP-62 NSCLC
  TGI: > 100 µM
HOP-92 NSCLC
  TGI: > 100 µM
SF-268 CNS
  TGI: > 100 µM
T-47D breast
  TGI: > 100 µM
786-0 renal
  TGI: > 100 µM
M14 melanoma
  TGI: > 100 µM
